# Test results reported in patent publication US20250129045A1, “SMALL MOLECULE PIM AND MTOR KINASE INHIBITOR AND METHODS OF USE THEREOF” (Arizona Board of Regents on Behalf of the University of …, priority 2022, published 2025).
# Columns and labels:
# Format in all cases: cell-based
# Prostate Cancer Growth = assay: SAR studies using inhibition of prostate cancer growth as a readout; conditions: SAR by substituent position
# mTORC = assay: Phosphorylation of mTORC substrates in PANC1 cells (Western blot); conditions: overnight incubation, FIG. 19
# Method: Immunoblotting: Western blots were performed as described previously. Briefly, protein lysates (30 μg) were subjected to SDS-PAGE and transferred to nitrocellulose membranes. After blocking with 5% milk in TBST buffer for 30 min at room temperature, the membranes were incubated overnight at 4° C. with the Indicated primary antibody in 3% BSA in TBST. Specific proteins were detected with the corresponding HRP conjugated secondary antibody using enhanced chemiluminescence (GE Lifesciences, Piscataway, NJ).
# (§1) Because of ease of growth, PANC1 pancreatic cancer cells were used to test the activity of derivatives of VBT-5445 (FIG. 14). […] Using a doxycycline inducible Pim kinase vector in these tumor cells, this inhibition of phosphorylation was proportional to the level of Pim in these cells (FIG. 9). […] Inhibition of mTORC1 is known to stimulate the feedback activation of mTORC2 leading to AKT phosphorylation. […] The effect of these compounds on mTORC1 and 2 was still evident in PC3-LN4 cells that contained a knockout (KO) using CRISPR/CAS9 of either TSC2 or DEPDC5 (FIG. 12, lanes 4-9). TSC2 KO activated the Rheb GTPase while DEPDC5 KO activated the RAG GTPase both of which stimulate mTORC1 activity. Thus, GRG compounds were capable of inhibiting mTORC1 activity even when this kinase was highly activated.
# [1] = test system: PANC1 pancreatic cancer cells; assay: Growth inhibition of PANC1 pancreatic cancer cells
# Method: Cell growth assay: Tumor cells were seeded into 48 well plates (1000 cells/well) and treated with varied agents. The Incucyte real-time imaging system (Incucyte) was used to measure cell proliferation using a non-label cell monolayer confluence approach. The images were captured every 12 h. Graphs were generated using an integrated confluence metric as an alternative for cell numbers. At the end of the study cell growth was visualized by crystal violet staining.
# as §1
# PANC1 cells = assay: Reverse-phase protein array (RPPA) of PANC1 cells, Table 3; conditions: 6 h treatment, divided by zero-time value, average of triplicate
# Method: To further examine how these compounds function to inhibit tumor growth, changes in both a wide variety of phosphoprotein and protein levels using reverse-phase protein arrays (RPPA) were evaluated. […] The values in the RPPA obtained at these two time points were divided by the value at time zero to allow an evaluation of the changes caused by each drug treatment.
compound,measurement,setting,value
COc1ccc(CNCc2cc3ccc(Cl)cc3n(CCOc3ccccc3)c2=O)nc1 [GRG-1-27],Activity (inhibition of prostate cancer growth),Prostate Cancer Growth,2 active compounds
O=c1c(CNCc2ccc(C(F)(F)F)cn2)cc2ccc(Cl)cc2n1CCOc1ccccc1 [GRG-1-28],Activity (inhibition of prostate cancer growth),Prostate Cancer Growth,2 active compounds
Cc1cccc(CNCc2cc3ccc(Cl)cc3n(CCOc3ccccc3)c2=O)n1 [GRG-1-31],"block of phosphorylation of mTORC substrates (AKT, 4E-BP1, S6)",mTORC,block the phosphorylation of mTORC substrates
same,growth inhibitory activity against PANC1 pancreatic cancer cells,[1],most active
O=c1c(COCc2ccccc2)cc2ccc(Cl)cc2n1CCOc1ccccc1 [GRG-1-60],Activity (inhibition of prostate cancer growth),Prostate Cancer Growth,Contributes to loss of activity
same,"block of phosphorylation of mTORC substrates (AKT, 4E-BP1, S6)",mTORC,not
same,growth inhibitory activity against PANC1 pancreatic cancer cells,[1],inactive
CN(Cc1ccccn1)Cc1cc2ccc(Cl)cc2n(CCOc2ccccc2)c1=O [GRG-1-61],Activity (inhibition of prostate cancer growth),Prostate Cancer Growth,Reduces activity to some extent
O=c1c(COCc2ccccn2)cc2ccc(Cl)cc2n1CCOc1ccccc1 [GRG-1-63],Activity (inhibition of prostate cancer growth),Prostate Cancer Growth,Contributes to loss of activity
COc1ccc(OCCn2c(=O)c(CNCc3ccccn3)cc3ccc(Cl)cc32)cc1 [GRG-1-70],Activity (inhibition of prostate cancer growth),Prostate Cancer Growth,"Brings activity, though 4-chloro"
"O=C(NCc1cc2ccc(Cl)cc2n(CCOc2ccccc2)c1=O)c1ccccn1 [GRG-1-94, N-((7-chloro-2-oxo-1-(2-phenoxyethyl)-1,2-dihydroquinolin-3-yl)methyl) picolinamide]","block of phosphorylation of mTORC substrates (AKT, 4E-BP1, S6)",mTORC,not
same,growth inhibitory activity against PANC1 pancreatic cancer cells,[1],inactive
COc1ccnc(CNCc2cc3ccc(Cl)cc3n(CCOc3ccccc3)c2=O)c1 [GRG-1-95],Activity (inhibition of prostate cancer growth),Prostate Cancer Growth,6 active compounds
Cc1ccnc(CNCc2cc3ccc(Cl)cc3n(CCOc3ccccc3)c2=O)c1 [GRG-1-96],Activity (inhibition of prostate cancer growth),Prostate Cancer Growth,6 active compounds
"O=c1c(CNCc2ccccn2)cc2ccc(Cl)cc2n1CCSc1ccccc1 [GRG-1-104, 7-chloro-1-(2-(phenylthio)ethyl)-3-(((pyridin-2-ylmethyl)amino)methyl)quinolin-2 (1H)-one]",Activity (inhibition of prostate cancer growth),Prostate Cancer Growth,Active
same,"block of phosphorylation of mTORC substrates (AKT, 4E-BP1, S6)",mTORC,block the phosphorylation of mTORC substrates
same,growth inhibitory activity against PANC1 pancreatic cancer cells,[1],most active
COc1ccc(OCCn2c(=O)c(CNCc3cc(C(F)(F)F)ccn3)cc3ccc(Cl)cc32)cc1 [GRG-1-127],Activity (inhibition of prostate cancer growth),Prostate Cancer Growth,"Brings activity, though 4-chloro"
COc1ccc(OCCn2c(=O)c(CNCc3cc(Br)ccn3)cc3ccc(Cl)cc32)cc1 [GRG-1-166],Activity (inhibition of prostate cancer growth),Prostate Cancer Growth,"Brings activity, though 4-chloro"
COc1ccc(OCCn2c(=O)c(CNCc3cc(Cl)ccn3)cc3ccc(Cl)cc32)cc1 [GRG-1-167],Activity (inhibition of prostate cancer growth),Prostate Cancer Growth,substitution decreases activity
O=c1c(CNCc2cc(Br)ccn2)cc2ccc(N3CCOCC3)cc2n1CCOc1ccccc1 [GRG-02-24],Activity (inhibition of prostate cancer growth),Prostate Cancer Growth,Contributes to loss of activity
O=c1c(CNCc2cccc(Br)n2)cc2ccc(Cl)cc2n1CCOc1ccccc1 [ZH-2-44],Activity (inhibition of prostate cancer growth),Prostate Cancer Growth,1 active compound (methoxy)
O=c1c(CNCc2ncccc2F)cc2ccc(Cl)cc2n1CCOc1ccccc1 [ZH-2-50],Activity (inhibition of prostate cancer growth),Prostate Cancer Growth,Less active
"CC(C)n1nc(-c2cc3cc(O)ccc3[nH]2)c2c(N)ncnc21 [pp242, reference compound]","4EBP1S65, RPPA value after treatment / zero-time value",PANC1 cells,0.22
same,"4EBP1T70, RPPA value after treatment / zero-time value",PANC1 cells,0.32
same,"ATMS1981, RPPA value after treatment / zero-time value",PANC1 cells,0.46
same,"CICaspase3D175, RPPA value after treatment / zero-time value",PANC1 cells,0.7
same,"CofilinS3, RPPA value after treatment / zero-time value",PANC1 cells,0.6
same,"CrkIIY221, RPPA value after treatment / zero-time value",PANC1 cells,1.57
same,"ERKT202_Y204, RPPA value after treatment / zero-time value",PANC1 cells,2.04
same,"FAKY576_577, RPPA value after treatment / zero-time value",PANC1 cells,0.81
same,"FKHR-FOX01S256, RPPA value after treatment / zero-time value",PANC1 cells,1.03
same,"GSK3a_bS21_9, RPPA value after treatment / zero-time value",PANC1 cells,1.09
same,"HistoneH2AXS139, RPPA value after treatment / zero-time value",PANC1 cells,1.19
same,"HistoneH3S10, RPPA value after treatment / zero-time value",PANC1 cells,0.64
same,"IL-1bcleavedD116, RPPA value after treatment / zero-time value",PANC1 cells,0.46
same,"Jak1Y1022_1023, RPPA value after treatment / zero-time value",PANC1 cells,0.71
same,"MAPKpTEpY, RPPA value after treatment / zero-time value",PANC1 cells,0.64
same,"PDGFRbY751, RPPA value after treatment / zero-time value",PANC1 cells,0.67
same,"PP1aT320, RPPA value after treatment / zero-time value",PANC1 cells,0.61
same,"PaxillinY118, RPPA value after treatment / zero-time value",PANC1 cells,0.9
same,"RetY905, RPPA value after treatment / zero-time value",PANC1 cells,0.25
same,"S6RibosomalPS235_236, RPPA value after treatment / zero-time value",PANC1 cells,0.34
same,"S6RibosomalProtein S240_244, RPPA value after treatment / zero-time value",PANC1 cells,0.66
same,"SAPK_JNKT183_Y185, RPPA value after treatment / zero-time value",PANC1 cells,1.07
same,"Stat2Y690, RPPA value after treatment / zero-time value",PANC1 cells,0.76
same,"Stat3Y705, RPPA value after treatment / zero-time value",PANC1 cells,0.51
same,"Tyk2Y1054_1055, RPPA value after treatment / zero-time value",PANC1 cells,0.51
same,"VEGFR2Y1175, RPPA value after treatment / zero-time value",PANC1 cells,0.34
same,"YAPS127, RPPA value after treatment / zero-time value",PANC1 cells,0.76
same,"cAbIY245, RPPA value after treatment / zero-time value",PANC1 cells,1.54
same,"cKitY703, RPPA value after treatment / zero-time value",PANC1 cells,1.09
same,"p38MAPKT180_Y182, RPPA value after treatment / zero-time value",PANC1 cells,0.59
same,"p70S6KS371, RPPA value after treatment / zero-time value",PANC1 cells,0.39
same,"p70S6KT389, RPPA value after treatment / zero-time value",PANC1 cells,0.29
same,"p90RSKS380, RPPA value after treatment / zero-time value",PANC1 cells,0.91
